Values after ≈ are worked out from the molar mass of the structure shown.
System: P388
Test: Cytotoxicity against mouse P388 cells
Format: functional, cell-based

Row | SMILES | IC50 [µg/mL]
1 | C[S@+]([O-])C[C@](C)(O)[C@H]1OC(=O)C=C2[C@@]13O[C@@H]3[C@H]1OC(=O)[C@@]3(C)C=CC[C@@]2(C)[C@@H]13 (stereo in doubt; 1) | 0.52 (≈ 1.27 µM)
2 | C[S@+]([O-])C[C@](C)(O)[C@H]1OC(=O)C=C2[C@@]13O[C@@H]3[C@H]1OC(=O)[C@@]3(C)C=CC[C@@]2(C)[C@@H]13 (stereo in doubt; 2) | 0.23 (≈ 0.563 µM)
